The experiment relates to HCV pseudoparticles (genotype 1a HCV E1 and E2 envelope, H77C isolate). The experiment is described as follows: microbe, parasite or virus in culture. To be noted: Hepatitis C virus. Type of experiment: cell-based.
The mark [1] stands for this setting: Huh-7, 48 h, read-out: Activity (EC50 class), HCV pseudoparticle infection of Huh7 cells, luciferase 2 days after infection, EC50 expressed as class A/B.
Where [2] appears, read: Huh-7, 48 h, read-out: Activity (EC50 class), HCV pseudoparticles, Huh7 cells, luciferase 2 days after infection, average of duplicates.
[3] abbreviates: Huh-7, read-out: Activity (EC50 class), HCV pseudoparticles (genotype 1a, H77C) in Huh7 cells, EC50 expressed as class A/B.
Setting [4] is: Huh-7, 48 h, HCV pseudoparticle infection of Huh7 cells, luciferase 2 days after infection, average of duplicates.
[5] abbreviates: Huh-7, 48 h, HCV pseudoparticles (genotype 1a, H77C) in Huh7 cells, average of duplicate, luciferase 2 days after infection.

pEC50: −log10 of the molar value. Like-named read-outs stand apart in the source and are kept apart here.

Experimental findings from patent US8916702B2 (priority 2012, dated 2014) are described below.

By pEC50 is commonly meant the negative decadic logarithm of the EC50, by convention in mol/L. Turning to `O=C(NC[C@H](NC(=O)c1ccc(Nc2nc(NC3(c4ccc(Cl)cc4)CC3)nc(OCC(F)(F)F)n2)cc1)C(=O)O)C(=O)NC1(Cc2ccccc2)CC1` [Compound 1415], the pEC50 under setting [1] was 8.00 to 11.00.
For `CC(C)(CNC(=O)C(=O)Nc1nc2c(F)cc(F)cc2s1)CNC(=O)c1ccc(Nc2nc(NC3(c4ccc(Cl)cc4)CC3)nc(OCC(F)(F)F)n2)cc1` [Compound 3809], under setting [2], the negative-log EC50 (pEC50) is 8.00 to 11.00.
On to `COc1cc(F)ccc1NC(=O)C(=O)NCC(C)(C)CNC(=O)c1ccc(Nc2nc(NC3(c4ccc(Cl)cc4)CC3)nc(OCC(F)(F)F)n2)cc1` [Compound 3075], for which, under setting [3], the pEC50 is 8.00 to 11.00.
For `Cc1ccc(NC(=O)C(=O)NCC(C)(C)CNC(=O)c2ccc(Nc3nc(NC4(c5ccc(Cl)cc5)CC4)nc(OCc4ccccc4F)n3)cc2)cc1` [Compound 3847], the negative-log EC50 (pEC50) (Huh-7, 48 h, HCV pseudoparticles, Huh7 cells, luciferase 2 days after infection, average of duplicates) was 10.57 and the pEC50 under setting [2] is 8.00 to 11.00.
As to `O=C(NC[C@H](NC(=O)c1ccc(Nc2nc(NC3(c4ccc(Cl)cc4)CC3)nc(OCC(F)(F)F)n2)cc1)C(=O)O)C(=O)NC1CCCCCCC1` [Compound 1096], under setting [1], the negative logarithm of the EC50 (pEC50) is 8.00 to 11.00.
Regarding `COC(=O)[C@H](CNC(=O)C(=O)NCCc1cccc(F)c1)NC(=O)c1ccc(Nc2nc(NC3(c4ccc(Cl)cc4)CC3)nc(OCC(F)(F)F)n2)cc1` [Compound 1289], the pEC50 under setting [1] is 8.00 to 11.00.
`CC(C)(CNC(=O)C(=O)Nc1nc2ccc(F)cc2s1)CNC(=O)c1ccc(Nc2nc(NC3(c4ccc(Cl)cc4)CC3)nc(OCC(F)(F)F)n2)cc1` [Compound 3804]: the pEC50 under setting [2] is 8.00 to 11.00.
For the molecule `COC(=O)[C@H](CNC(=O)C(=O)NCc1cccc(OC)c1)NC(=O)c1ccc(Nc2nc(NC3(c4ccc(Cl)cc4)CC3)nc(OCC(F)(F)F)n2)cc1` [Compound 1151], the pEC50 by setting is: under setting [4], 8.79; under setting [1], 8.00 to 11.00.
Turning to `C[C@@H]1[C@H]2C[C@H](C[C@H]1NC(=O)C(=O)NC[C@H](NC(=O)c1ccc(Nc3nc(NC4(c5ccc(Cl)cc5)CC4)nc(OCC(F)(F)F)n3)cc1)C(=O)O)C2(C)C` [Compound 1105], the pEC50 under setting [1] was 8.00 to 11.00.
As to `O=C(NCC[C@H](NC(=O)c1ccc(Nc2nc(NC3(c4ccc(Cl)cc4)CC3)nc(OCC(F)(F)F)n2)cc1)C(=O)O)C(=O)NCC1(Cn2ccnc2)CC1` [Compound 1429], under setting [1], the pEC50 is 8.00 to 11.00.
With `COC(=O)[C@H](CCNC(=O)C(=O)Nc1ccc(C2CCCCC2)cc1)NC(=O)c1ccc(Nc2nc(NC3(c4ccc(Cl)cc4)CC3)nc(OCC(F)(F)F)n2)cc1` [Compound 3111], the pEC50 under setting [3] was 8.00 to 11.00.
As to `O=C(NCCc1c[nH]cn1)C(=O)NC[C@H](NC(=O)c1ccc(Nc2nc(NC3(c4ccc(Cl)cc4)CC3)nc(OCC(F)(F)F)n2)cc1)C(=O)O` [Compound 1407], the pEC50 under setting [1] is 8.00 to 11.00.
Same read-out and setting: next, `O=C(NC[C@H](NC(=O)c1ccc(Nc2nc(NC3(c4ccc(Cl)cc4)CC3)nc(OCC(F)(F)F)n2)cc1)C(=O)O)C(=O)N[C@@H]1C[C@H]1c1ccccc1` [Compound 1406]: 8.00 to 11.00.
On the same count and under the same terms, next, `COC(=O)[C@H](CCNC(=O)C(=O)NCCc1c[nH]cn1)NC(=O)c1ccc(Nc2nc(NC3(c4ccc(Cl)cc4)CC3)nc(OCC(F)(F)F)n2)cc1` [Compound 1318]: 8.00 to 11.00.
On to `O=C(NCCCNC(=O)c1ccc(Nc2nc(NC3(c4ccc(Cl)cc4)CC3)nc(OCC(F)(F)F)n2)cc1)C(=O)Nc1cccc(F)c1` [Compound 3349], for which the negative-log EC50 (pEC50) is 10.39 under setting [5] and 8.00 to 11.00 under setting [3].
For the molecule `O=C(NCC[C@H](NC(=O)c1ccc(Nc2nc(NC3(c4ccc(Cl)cc4)CC3)nc(OCC(F)(F)F)n2)cc1)C(=O)O)C(=O)Nc1ccc(-c2ccncc2)cc1` [Compound 1525], under setting [1], the pEC50 was 8.00 to 11.00.
On the same count and under the same terms, next, `COC(=O)[C@H](CNC(=O)C(=O)NC1CCCCC1O)NC(=O)c1ccc(Nc2nc(NC3(c4ccc(Cl)cc4)CC3)nc(OCC(F)(F)F)n2)cc1` (some centres unmarked) [Compound 1051]: 8.00 to 11.00; `O=C(NCC[C@H](NC(=O)c1ccc(Nc2nc(NC3(c4ccc(Cl)cc4)CC3)nc(OCC(F)(F)F)n2)cc1)C(=O)O)C(=O)NCC1CCOCC1` [Compound 1215]: 8.00 to 11.00.
For the molecule `Cc1ccccc1-c1ccc(NC(=O)C(=O)NC[C@H](NC(=O)c2ccc(Nc3nc(NC4(c5ccc(Cl)cc5)CC4)nc(OCC(F)(F)F)n3)cc2)C(=O)O)cc1` [Compound 3272], the negative logarithm of the EC50 (pEC50) under setting [3] was 8.00 to 11.00.
Turning to `C=Cc1cccc(NC(=O)C(=O)NC[C@H](NC(=O)c2ccc(Nc3nc(NC4(c5ccc(Cl)cc5)CC4)nc(OCC(F)(F)F)n3)cc2)C(=O)OC)c1` [Compound 3690], under setting [2], the pEC50 was 8.00 to 11.00.
`COC(=O)[C@H](CCNC(=O)C(=O)NCC1CCc2ccccc21)NC(=O)c1ccc(Nc2nc(NC3(c4ccc(Cl)cc4)CC3)nc(OCC(F)(F)F)n2)cc1` (some centres unmarked) [Compound 1324]: the pEC50 under setting [1] is 8.00 to 11.00.
Same read-out and setting: next, `CC1CC(NC(=O)C(=O)NCC[C@H](NC(=O)c2ccc(Nc3nc(NC4(c5ccc(Cl)cc5)CC4)nc(OCC(F)(F)F)n3)cc2)C(=O)O)CC(C)(C)C1` (some centres unmarked) [Compound 1127]: 8.00 to 11.00.
As to `C#Cc1cccc(NC(=O)C(=O)NC[C@H](NC(=O)c2ccc(Nc3nc(NC4(c5ccc(Cl)cc5)CC4)nc(OCC(F)(F)F)n3)cc2)C(=O)Cl)c1` [Compound 3746], the pEC50 under setting [2] is 8.00 to 11.00.
As to `COC(=O)[C@H](CNC(=O)C(=O)Nc1ccc(N(C)c2nc(C)cc(C)n2)cc1)NC(=O)c1ccc(Nc2nc(NC3(c4ccc(Cl)cc4)CC3)nc(OCC(F)(F)F)n2)cc1` [Compound 3104], the pEC50 under setting [3] is 8.00 to 11.00.
On the same count and under the same terms, the value for `COC(=O)[C@H](CCNC(=O)C(=O)Nc1ccc(Cc2ccncc2)cc1)NC(=O)c1ccc(Nc2nc(NC3(c4ccc(Cl)cc4)CC3)nc(OCC(F)(F)F)n2)cc1` [Compound 3123] was 8.00 to 11.00.
With `CN(C(=O)C(=O)NC[C@H](NC(=O)c1ccc(Nc2nc(NC3(c4ccc(Cl)cc4)CC3)nc(OCC(F)(F)F)n2)cc1)C(=O)O)c1ccccc1` [Compound 1365], the pEC50 under setting [1] is 8.00 to 11.00.
On the same count and under the same terms, next, `O=C(NCCc1cccnc1)C(=O)NC[C@H](NC(=O)c1ccc(Nc2nc(NC3(c4ccc(Cl)cc4)CC3)nc(OCC(F)(F)F)n2)cc1)C(=O)O` [Compound 1405]: 8.00 to 11.00.
Regarding `CC(C)(CNC(=O)C(=O)Nc1ccc(Cl)c(F)c1)CNC(=O)c1ccc(Nc2nc(NC3(c4ccc(Cl)cc4)CC3)nc(OCC(F)(F)F)n2)cc1F` [Compound 3513], under setting [3], the pEC50 is 8.00 to 11.00.
For the molecule `O=C(NCC[C@H](NC(=O)c1ccc(Nc2nc(NC3(c4ccc(Cl)cc4)CC3)nc(OCC(F)(F)F)n2)cc1)C(=O)O)C(=O)Nc1cn[nH]c1` [Compound 1266], the pEC50 under setting [1] is 8.00 to 11.00.
On to `O=C(NC[C@H](NC(=O)c1ccc(Nc2nc(NC3(c4ccc(Cl)cc4)CC3)nc(OCC(F)(F)F)n2)cc1)C(=O)O)C(=O)Nc1ccc(O)nc1` [Compound 3777], for which, under setting [2], the pEC50 is 8.00 to 11.00.
For the molecule `O=C(NC[C@H](NC(=O)c1ccc(Nc2nc(NC3(c4ccc(Cl)cc4)CC3)nc(OCC(F)(F)F)n2)cc1)C(=O)O)C(=O)Nc1ccc(Oc2ccncc2)cc1` [Compound 3289], the pEC50 was 8.60 under setting [5] and 8.00 to 11.00 under setting [3].
Regarding `CC(C)(CNC(=O)C(=O)NOc1ccccc1)CNC(=O)c1ccc(Nc2nc(NC3(c4ccc(Cl)cc4)CC3)nc(OCC(F)(F)F)n2)cc1` [Compound 3064], under setting [3], the pEC50 was 8.00 to 11.00.
With `Cc1nnnn1-c1cc(Nc2nc(NC3(c4ccc(Cl)cc4)CC3)nc(OCC(F)(F)F)n2)ccc1C(=O)NCC(C)(C)CNC(=O)C(=O)Nc1cccc(F)c1` [Compound 3517], the pEC50 under setting [3] is 8.00 to 11.00.
The same measure, in the same setting: next, `COC(=O)[C@H](CNC(=O)C(=O)Nc1ccc(OCc2ccccc2)cc1)NC(=O)c1ccc(Nc2nc(NC3(c4ccc(Cl)cc4)CC3)nc(OCC(F)(F)F)n2)cc1` [Compound 3090]: 8.00 to 11.00.
Consider `COc1cccc(CCNC(=O)C(=O)NC[C@H](NC(=O)c2ccc(Nc3nc(NC4(c5ccc(Cl)cc5)CC4)nc(OCC(F)(F)F)n3)cc2)C(=O)O)c1` [Compound 1398], for which the negative-log EC50 (pEC50) was 8.66 under setting [4] and 8.00 to 11.00 under setting [1].
Turning to `COC(=O)[C@H](CNC(=O)C(=O)Nc1ccc(S(N)(=O)=O)cc1)NC(=O)c1ccc(Nc2nc(NC3(c4ccc(Cl)cc4)CC3)nc(OCC(F)(F)F)n2)cc1` [Compound 3087], the pEC50 under setting [3] is 8.00 to 11.00.
For the molecule `CN(CCCN(C)C(=O)c1ccc(Nc2nc(NC3(c4ccc(Cl)cc4)CC3)nc(OCC(F)(F)F)n2)cc1)C(=O)C(=O)Nc1nccs1` [Compound 3430], the negative logarithm of the EC50 (pEC50) was 8.84 under setting [5] and 8.00 to 11.00 under setting [3].
With `CC(C)(CNC(=O)c1ccc(Nc2nc(NC3(c4ccc(Cl)cc4)CC3)nc(OCC(F)(F)F)n2)cc1)NC(=O)C(=O)Nc1ccc(F)cc1` [Compound 3418], the pEC50 under setting [3] is 8.00 to 11.00.
On the same count and under the same terms, next, `CC(C)(C)c1ccc(NC(=O)C(=O)NCC[C@H](NC(=O)c2ccc(Nc3nc(NC4(c5ccc(Cl)cc5)CC4)nc(OCC(F)(F)F)n3)cc2)C(=O)O)cc1` [Compound 3549]: 8.00 to 11.00.
Turning to `CNC(=O)C(=O)NC[C@H](NC(=O)c1ccc(Nc2nc(NC3(c4ccc(Cl)cc4)CC3)nc(OCC(F)(F)F)n2)cc1)C(=O)OC` [Compound 1003, (S)-methyl 2-(4-(4-(1-(4-chlorophenyl)cyclopropylamino)-6-(2,2,2-trifluoroethoxy)-1,3,5-triazin-2-ylamino)benzamido)-3-(2-(methylamino)-2-oxoacetamido)propanoate], the pEC50 under setting [1] was 8.00 to 11.00.
`O=C(NCCCCNC(=O)c1ccc(Nc2nc(NC3(c4ccc(Cl)cc4)CC3)nc(OCC(F)(F)F)n2)cc1)C(=O)Nc1cccc(F)c1` [Compound 3390]: under setting [3], the pEC50 is 8.00 to 11.00.
On to `Cc1ccc(NC(=O)C(=O)NC(C)(C)CNC(=O)c2ccc(Nc3nc(NC4(c5ccc(Cl)cc5)CC4)nc(OCC(F)(F)F)n3)cc2)cc1` [Compound 3417], for which the pEC50 is 10.49 under setting [5] and 8.00 to 11.00 under setting [3].
`O=C(NCC[C@H](NC(=O)c1ccc(Nc2nc(NC3(c4ccc(Cl)cc4)CC3)nc(OCC(F)(F)F)n2)cc1)C(=O)O)C(=O)Nc1ccc(N2CCCC2=O)cc1` [Compound 3227]: the pEC50 under setting [3] is 8.00 to 11.00.
